Test results reported in the NIST ThermoML archive (doi:10.1016/j.jct.2011.02.018).

Experiment: xn = mol fraction of the nth substance listed
Conditions: 101 kPa, Liquid; for viscosity: Concentric cylinders viscometry; for mass density: Vibrating tube method

COC(C)(C)C [2-methoxy-2-methylpropane] + CCO
Conditions	mass density, 303.15 K [kg/m3]	mass density, 308.15 K [kg/m3]	viscosity, 303.15 K [mPa·s]	viscosity, 308.15 K [mPa·s]
x1 = 0.0097	780.44	776.08	0.9713	0.884
x1 = 0.0198	779.64	775.26	0.9506	0.8659
x1 = 0.0301	778.87	774.47	0.9348	0.8484
x1 = 0.0402	778.16	773.74	0.9088	0.8298
x1 = 0.0502	777.63	773.2	0.893	0.8165
x1 = 0.0583	776.91	772.46	0.8745	0.7986
x1 = 0.07	776.08	771.61	0.854	0.7813
x1 = 0.0801	775.37	770.89	0.8364	0.7634
x1 = 0.0861	775.09	770.6	0.8291	0.7578
x1 = 0.1009	774.11	769.6	0.806	0.7369
x1 = 0.154	770.56	765.97	0.7283	0.6689
x1 = 0.2006	767.62	762.96	0.6694	0.6147
x1 = 0.2471	764.79	760.08	0.6185	0.5661
x1 = 0.2975	761.83	757.06	0.5731	0.5259
x1 = 0.3487	758.96	754.12	0.5309	0.4855
x1 = 0.3976	756.32	751.43	0.4954	0.4552
x1 = 0.4532	753.45	748.5	0.4638	0.4257
x1 = 0.5007	751.15	746.15	0.4353	0.3994
x1 = 0.5505	748.85	743.8	0.4155	0.379
x1 = 0.5998	746.63	741.53	0.3967	0.363
x1 = 0.6484	744.43	739.29	0.3808	0.3487
x1 = 0.6995	742.19	737	0.3632	0.3313
x1 = 0.749	740.14	734.91	0.3459	0.3273
x1 = 0.7995	738.06	732.8	0.3381	0.3084
x1 = 0.8496	736.08	730.78	0.3271	0.3025
x1 = 0.9009	734.07	728.75	0.3159	0.2963
x1 = 0.9093	733.77	728.45	0.3136	0.2948
x1 = 0.9166	733.47	728.14	0.3143	0.2965
x1 = 0.9299	732.9	727.57	0.3136	0.2908
x1 = 0.9398	732.51	727.17	0.3107	0.2884
x1 = 0.9501	732.09	726.76	0.3068	0.2842
x1 = 0.9597	731.71	726.36	0.3066	0.2829
x1 = 0.968	731.37	726.03	0.3062	0.282
x1 = 0.9802	730.87	725.52	0.304	0.2809
x1 = 0.9868	730.61	725.26	0.3005	0.2794
